Experimental data taken from ChEMBL document CHEMBL1149398, “Pyrrolizidine esters and amides as 5-HT4 receptor agonists and antagonists” (J Med Chem, 2006).

Assays:
[1] = Binding affinity to 5HT1 receptor
[2] = target: D(1A) dopamine receptor (Homo sapiens, UniProt P21728); experiment: Binding affinity to dopamine receptor D1
[3] = target: D(2) dopamine receptor (Homo sapiens, UniProt P14416); experiment: Binding affinity to dopamine receptor D2
[4] = target: T1, Adrenergic receptor alpha-1 (Homo sapiens, UniProt P35348+P25100+P35368); experiment: Binding affinity to adrenergic alpha-1 receptor; assay type: protein assay
T1 sequence (P35348 whole entry): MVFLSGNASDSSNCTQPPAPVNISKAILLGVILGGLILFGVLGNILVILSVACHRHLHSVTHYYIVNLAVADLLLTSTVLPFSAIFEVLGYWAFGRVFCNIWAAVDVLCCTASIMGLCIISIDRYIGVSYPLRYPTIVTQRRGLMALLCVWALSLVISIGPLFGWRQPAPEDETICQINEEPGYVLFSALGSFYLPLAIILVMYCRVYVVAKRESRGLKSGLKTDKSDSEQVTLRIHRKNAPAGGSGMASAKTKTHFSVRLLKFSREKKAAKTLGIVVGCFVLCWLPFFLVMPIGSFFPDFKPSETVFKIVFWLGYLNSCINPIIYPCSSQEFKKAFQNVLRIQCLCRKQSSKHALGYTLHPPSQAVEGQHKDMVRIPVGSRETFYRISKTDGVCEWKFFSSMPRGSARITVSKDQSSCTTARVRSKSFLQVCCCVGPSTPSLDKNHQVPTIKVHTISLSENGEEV
T1 sequence (P25100 whole entry): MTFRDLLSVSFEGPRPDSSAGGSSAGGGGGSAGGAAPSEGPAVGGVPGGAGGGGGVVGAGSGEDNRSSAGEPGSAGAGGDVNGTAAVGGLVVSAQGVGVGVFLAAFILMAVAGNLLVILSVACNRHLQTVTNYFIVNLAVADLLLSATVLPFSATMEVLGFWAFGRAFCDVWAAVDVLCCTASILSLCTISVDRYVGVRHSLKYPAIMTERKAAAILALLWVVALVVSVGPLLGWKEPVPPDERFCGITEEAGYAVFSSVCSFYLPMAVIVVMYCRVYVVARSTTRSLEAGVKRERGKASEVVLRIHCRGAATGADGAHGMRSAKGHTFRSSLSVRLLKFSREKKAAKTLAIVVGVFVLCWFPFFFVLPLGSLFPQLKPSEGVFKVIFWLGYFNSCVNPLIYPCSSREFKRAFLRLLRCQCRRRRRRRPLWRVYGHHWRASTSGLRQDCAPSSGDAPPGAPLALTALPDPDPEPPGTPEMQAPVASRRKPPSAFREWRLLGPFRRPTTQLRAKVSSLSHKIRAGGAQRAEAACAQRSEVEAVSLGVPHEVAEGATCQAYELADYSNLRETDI
T1 sequence (P35368 whole entry): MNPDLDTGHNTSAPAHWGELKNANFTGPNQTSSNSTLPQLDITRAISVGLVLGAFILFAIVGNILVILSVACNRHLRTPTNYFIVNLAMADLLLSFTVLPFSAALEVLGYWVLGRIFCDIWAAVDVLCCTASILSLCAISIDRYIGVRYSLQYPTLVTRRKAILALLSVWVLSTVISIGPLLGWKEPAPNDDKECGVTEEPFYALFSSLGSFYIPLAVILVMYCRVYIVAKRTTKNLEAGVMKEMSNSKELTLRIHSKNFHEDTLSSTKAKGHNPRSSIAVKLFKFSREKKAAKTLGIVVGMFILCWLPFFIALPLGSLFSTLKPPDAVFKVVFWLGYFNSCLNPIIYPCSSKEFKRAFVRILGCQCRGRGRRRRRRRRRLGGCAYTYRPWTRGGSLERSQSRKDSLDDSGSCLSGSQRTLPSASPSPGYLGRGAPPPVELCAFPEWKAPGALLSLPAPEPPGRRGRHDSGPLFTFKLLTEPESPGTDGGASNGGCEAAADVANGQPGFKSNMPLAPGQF

[5] = target: T2, Adrenergic receptor alpha-2 (Homo sapiens, UniProt P08913+P18825+P18089); experiment: Binding affinity to adrenergic alpha-2 receptor; assay type: protein assay
T2 sequence (P08913 whole entry): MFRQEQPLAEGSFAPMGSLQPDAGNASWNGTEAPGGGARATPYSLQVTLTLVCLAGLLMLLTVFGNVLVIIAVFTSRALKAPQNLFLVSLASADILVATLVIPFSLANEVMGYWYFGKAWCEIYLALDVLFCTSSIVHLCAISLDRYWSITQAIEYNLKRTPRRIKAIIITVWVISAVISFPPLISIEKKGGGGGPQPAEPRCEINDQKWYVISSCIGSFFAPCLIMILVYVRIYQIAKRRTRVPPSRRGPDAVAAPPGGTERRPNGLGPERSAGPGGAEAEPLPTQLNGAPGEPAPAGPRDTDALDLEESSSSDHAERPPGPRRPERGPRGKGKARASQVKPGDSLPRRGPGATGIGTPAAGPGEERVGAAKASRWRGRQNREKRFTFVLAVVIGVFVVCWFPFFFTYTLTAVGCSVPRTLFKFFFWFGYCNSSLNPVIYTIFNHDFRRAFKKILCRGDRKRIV
T2 sequence (P18825 whole entry): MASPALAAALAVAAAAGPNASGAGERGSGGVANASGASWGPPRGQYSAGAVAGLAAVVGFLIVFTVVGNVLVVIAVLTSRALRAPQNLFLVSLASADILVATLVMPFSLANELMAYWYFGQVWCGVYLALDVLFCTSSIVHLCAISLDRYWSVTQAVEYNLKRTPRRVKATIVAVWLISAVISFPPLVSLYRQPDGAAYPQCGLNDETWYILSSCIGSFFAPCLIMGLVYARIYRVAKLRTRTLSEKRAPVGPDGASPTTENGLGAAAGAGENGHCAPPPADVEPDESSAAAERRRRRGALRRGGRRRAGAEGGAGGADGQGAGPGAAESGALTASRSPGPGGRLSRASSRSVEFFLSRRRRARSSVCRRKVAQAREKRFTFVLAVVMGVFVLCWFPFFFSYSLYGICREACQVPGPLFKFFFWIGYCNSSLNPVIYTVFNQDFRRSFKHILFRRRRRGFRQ
T2 sequence (P18089 whole entry): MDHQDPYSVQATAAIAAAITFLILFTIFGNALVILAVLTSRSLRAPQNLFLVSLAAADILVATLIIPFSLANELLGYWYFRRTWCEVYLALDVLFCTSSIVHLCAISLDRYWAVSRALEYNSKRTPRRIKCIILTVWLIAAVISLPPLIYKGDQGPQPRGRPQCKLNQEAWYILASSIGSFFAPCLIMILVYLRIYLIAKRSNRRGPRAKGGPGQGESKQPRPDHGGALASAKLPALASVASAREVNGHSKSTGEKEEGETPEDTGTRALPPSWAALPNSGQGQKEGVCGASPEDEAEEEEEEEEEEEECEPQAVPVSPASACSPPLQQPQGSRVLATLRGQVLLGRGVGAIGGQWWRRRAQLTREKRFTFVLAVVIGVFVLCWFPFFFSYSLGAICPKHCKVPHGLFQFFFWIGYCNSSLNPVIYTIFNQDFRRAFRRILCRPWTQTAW

[6] = target: Beta-1 adrenergic receptor (Homo sapiens, UniProt P08588); experiment: Binding affinity to adrenergic beta-1 receptor
[7] = target: Serotonin 2 (5-HT2) receptor (Homo sapiens, UniProt P41595+P28223+P28335); experiment: Binding affinity to 5HT2 receptor; assay type: protein assay

Sequence of D(2) dopamine receptor (P14416 whole entry): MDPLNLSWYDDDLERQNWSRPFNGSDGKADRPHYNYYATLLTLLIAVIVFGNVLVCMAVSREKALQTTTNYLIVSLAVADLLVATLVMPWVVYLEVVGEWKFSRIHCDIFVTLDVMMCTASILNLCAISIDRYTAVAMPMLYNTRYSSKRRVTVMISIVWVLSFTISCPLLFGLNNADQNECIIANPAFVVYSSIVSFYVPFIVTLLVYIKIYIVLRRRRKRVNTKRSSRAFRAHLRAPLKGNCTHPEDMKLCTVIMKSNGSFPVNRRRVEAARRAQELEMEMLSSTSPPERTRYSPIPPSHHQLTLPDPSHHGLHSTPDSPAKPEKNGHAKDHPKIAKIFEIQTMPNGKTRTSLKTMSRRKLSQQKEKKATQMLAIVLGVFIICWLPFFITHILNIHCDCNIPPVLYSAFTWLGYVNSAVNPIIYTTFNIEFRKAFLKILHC
Sequence of Beta-1 adrenergic receptor (P08588 whole entry): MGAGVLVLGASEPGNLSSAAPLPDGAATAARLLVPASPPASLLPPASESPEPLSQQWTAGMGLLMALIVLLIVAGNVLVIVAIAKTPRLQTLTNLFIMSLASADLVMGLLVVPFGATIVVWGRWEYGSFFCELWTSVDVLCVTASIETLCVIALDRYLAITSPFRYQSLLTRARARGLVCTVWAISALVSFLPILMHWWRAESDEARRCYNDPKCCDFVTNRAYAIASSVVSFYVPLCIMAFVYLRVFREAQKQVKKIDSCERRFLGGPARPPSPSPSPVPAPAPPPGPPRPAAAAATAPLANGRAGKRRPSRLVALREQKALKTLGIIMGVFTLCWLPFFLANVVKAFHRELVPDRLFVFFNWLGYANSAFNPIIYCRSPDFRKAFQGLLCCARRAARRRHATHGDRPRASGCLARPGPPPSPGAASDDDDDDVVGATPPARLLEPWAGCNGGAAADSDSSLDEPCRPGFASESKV
Sequence of D(1A) dopamine receptor (P21728 whole entry): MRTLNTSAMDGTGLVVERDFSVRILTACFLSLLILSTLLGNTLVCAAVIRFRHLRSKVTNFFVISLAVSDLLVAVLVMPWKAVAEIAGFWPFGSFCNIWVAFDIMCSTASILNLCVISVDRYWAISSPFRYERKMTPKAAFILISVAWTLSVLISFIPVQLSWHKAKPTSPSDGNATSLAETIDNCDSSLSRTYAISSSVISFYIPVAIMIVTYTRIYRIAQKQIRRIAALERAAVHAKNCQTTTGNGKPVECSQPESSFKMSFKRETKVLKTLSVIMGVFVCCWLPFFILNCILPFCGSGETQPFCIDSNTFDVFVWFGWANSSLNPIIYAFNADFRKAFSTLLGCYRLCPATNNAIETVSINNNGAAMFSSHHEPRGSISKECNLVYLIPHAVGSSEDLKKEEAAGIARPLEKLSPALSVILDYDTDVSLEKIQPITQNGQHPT

Row | IC50 [1] [µM] | IC50 [2] [µM] | IC50 [3] [µM] | IC50 [4] [µM] | IC50 [5] [µM] | IC50 [6] [µM] | IC50 [7] [µM] | Compound
1 | > 10 | > 10 | > 10 | > 10 | > 10 | > 10 | > 10 | O=C(OC[C@@H]1CCN2CCC[C@@H]12)c1c[nH]c2ccccc12
2 | > 10 | > 10 | > 10 | > 10 | > 10 | > 10 | > 10 | COc1cc(N)c(Cl)cc1C(=O)N[C@@H]1C2CC3CN(C2)CC31 (some centres not stated)
3 | > 10 | > 10 | > 10 | > 10 | > 10 | > 10 | > 10 | Cn1nc(C(=O)OC[C@@H]2CCN3CCC[C@@H]23)c2ccccc21 (single isomer, unassigned)
4 | > 10 | > 10 | > 10 | > 10 | > 10 | > 10 | > 10 | O=C(OC[C@@H]1CCN2CCC[C@@H]12)c1[nH]nc2ccccc12 (single isomer, unassigned)

Row | Compound | IC50 [1] [µM] | IC50 [2] [µM] | IC50 [3] [µM] | IC50 [4] [µM] | IC50 [5] [µM] | IC50 [6] [µM] | IC50 [7] [µM]
5 | O=C(NC[C@@H]1CCN2CCC[C@@H]12)c1cc(Cl)cn2ccnc12 | > 10 | > 10 | > 10 | > 10 | > 10 | > 10 | > 10
6 | COc1cc(N)c(Cl)cc1C(=O)NC[C@@H]1CCN2CCC[C@@H]12 | > 10 | > 10 | > 10 | > 10 | > 10 | > 10 | > 10
